Measured values published in ChEMBL document CHEMBL1146130, “Benzoxazole benzenesulfonamides as allosteric inhibitors of fructose-1,6-bisphosphatase” (Bioorg Med Chem Lett, 2006).

test system: not listed separately; experiment: Oral bioavailability in rat at 5 mg/kg, po; assay type: ADME, organism-based; settings: in vivo

bioavailability [%]	SMILES
> 100	O=S(=O)(Nc1nc2cc(Cl)ccc2o1)c1ccc2ccccc2c1

test system: not listed separately; experiment: Half life in rat at 5 mg/kg, po; assay type: ADME, organism-based; parameters: dose 5 mg/kg, route oral; settings: in vivo

half-life [h]	SMILES
7.5	O=S(=O)(Nc1nc2cc(Cl)ccc2o1)c1ccc2ccccc2c1

test system: not listed separately; experiment: Plasma clearance in rat at 5 mg/kg; assay type: ADME, organism-based; parameters: dose 5 mg/kg; settings: not given

clearance [mL/min/kg]	SMILES
0.667	O=S(=O)(Nc1nc2cc(Cl)ccc2o1)c1ccc2ccccc2c1

target: T1, Fructose-1,6-bisphosphatase 1 (Homo sapiens, UniProt P09467); experiment: Inhibition of human FBPase1; settings: not given
T1 sequence (P09467 whole entry): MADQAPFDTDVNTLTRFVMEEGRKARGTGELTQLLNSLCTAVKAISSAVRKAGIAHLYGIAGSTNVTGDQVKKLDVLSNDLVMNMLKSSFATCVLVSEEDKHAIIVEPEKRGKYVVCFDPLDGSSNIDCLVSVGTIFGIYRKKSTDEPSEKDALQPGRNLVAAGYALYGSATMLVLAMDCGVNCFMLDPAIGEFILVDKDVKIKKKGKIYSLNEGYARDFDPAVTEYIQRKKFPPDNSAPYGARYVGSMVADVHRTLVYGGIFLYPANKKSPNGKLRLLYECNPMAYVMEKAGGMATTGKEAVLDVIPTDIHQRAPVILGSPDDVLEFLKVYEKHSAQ

SMILES	IC50 [µM]
O=S(=O)(Nc1nc2cc(Br)ccc2o1)c1cc(Cl)ccc1Cl	1.9
O=S(=O)(Nc1nc2cc(Cl)ccc2o1)c1ccccc1-c1ccccc1	3.8
Cc1ccc(S(=O)(=O)Nc2nc3cc(Cl)ccc3o2)cc1	6.2
Cc1cccc2oc(NS(=O)(=O)c3cc(Cl)ccc3Cl)nc12	55
O=S(=O)(Nc1nc2c(C3=CCNC=C3)cccc2o1)c1cc(Cl)ccc1Cl	> 50
CS(=O)(=O)Nc1nc2cc(Cl)ccc2o1	> 50
Cc1ccc2nc(NS(=O)(=O)c3cc(Cl)ccc3Cl)oc2c1	10
COc1cc(-c2ccc(N)cc2)c2oc(NS(=O)(=O)c3cc(Cl)ccc3Cl)nc2c1	1.3
O=S(=O)(Nc1nc2cc(Cl)ccc2o1)c1ccc2cc3ccccc3cc2c1	3.4
O=S(=O)(Nc1nc2cc(Cl)ccc2o1)c1ccccc1	7.7
O=[N+]([O-])c1cccc(S(=O)(=O)Nc2nc3cc(Cl)ccc3o2)c1	1.8
COc1cc(-c2ccc(O)cc2)c2oc(NS(=O)(=O)c3cc(Cl)ccc3Cl)nc2c1	1.8
O=S(=O)(Nc1nc2cc(Cl)ccc2o1)c1ccccc1Br	6.5
O=S(=O)(Nc1nc2cc(Cl)ccc2o1)c1ccc(F)cc1	2.8
O=S(=O)(Nc1nc2cc(Cl)ccc2o1)c1ccc2ccccc2c1	2.5
Cn1cnc(S(=O)(=O)Nc2nc3cc(Cl)ccc3o2)c1	9.4
N#Cc1ccccc1S(=O)(=O)Nc1nc2cc(Cl)ccc2o1	6
COc1cc(-c2cccc(CN)c2)c2oc(NS(=O)(=O)c3cc(Cl)ccc3Cl)nc2c1	2.6
CC(C)(C)c1ccc(S(=O)(=O)Nc2nc3cc(Cl)ccc3o2)cc1	24

Results, then the compound that gave them:

IC50 [µM]	SMILES
4	O=S(=O)(Nc1nc2cc(Cl)ccc2o1)c1ccc(-c2ccccc2)cc1
9.8	O=S(=O)(Nc1nc2cc(Cl)ccc2o1)c1cccc(-c2ccccc2)c1
> 50	O=S(=O)(Nc1nc2c(I)cccc2o1)c1cc(Cl)ccc1Cl
1.7	COc1cc(-c2cccc(O)c2)c2oc(NS(=O)(=O)c3cc(Cl)ccc3Cl)nc2c1
7.8	O=S(=O)(Nc1nc2cc(Cl)ccc2o1)c1ccc(OC(F)(F)F)cc1
6.4	Cc1ccc2oc(NS(=O)(=O)c3cc(Cl)ccc3Cl)nc2c1
8.1	O=S(=O)(Nc1nc2ccc(Cl)cc2o1)c1cc(Cl)ccc1Cl
> 50	CCCCS(=O)(=O)Nc1nc2cc(Cl)ccc2o1
12	CCCC(=O)Nc1ccc(S(=O)(=O)Nc2nc3cc(Cl)ccc3o2)cc1
8	COc1ccc2nc(NS(=O)(=O)c3cc(Cl)ccc3Cl)oc2c1
3.4	O=S(=O)(Nc1nc2cc(Cl)ccc2o1)c1cc(Cl)ccc1Cl
23	O=S(=O)(Nc1nc2cc(Cl)ccc2o1)c1ccccc1-n1ccnc1
4	O=S(=O)(Nc1nc2cc(-c3ccoc3)ccc2o1)c1cc(Cl)ccc1Cl
1.3	O=S(=O)(Nc1nc2cc(Cl)ccc2o1)c1cccc(Cl)c1
13	O=S(=O)(Nc1nc2cc(Cl)ccc2o1)c1cccs1
> 50	O=S(=O)(Nc1nc2cc(Cl)ccc2o1)c1c(Cl)cccc1Cl
6.7	O=S(=O)(Nc1nc2cc(Cl)ccc2o1)c1ccc(-c2ccoc2)cc1
32	CC(C)(C)c1ccc2oc(NS(=O)(=O)c3cc(Cl)ccc3Cl)nc2c1
> 50	CC(C)(C)c1ccc(COc2cccc(S(=O)(=O)Nc3nc4cc(Cl)ccc4o3)c2)cc1
> 50	Cc1cccc(Cl)c1S(=O)(=O)Nc1nc2cc(Cl)ccc2o1
